Literature values as cited in patent publication US20100135914A1, “AZEOTROPIC FUMIGANT COMPOSITIONS AND METHODS OF CONTROLLING PESTS” (priority 2008, published 2010).

Assays:
[1] = tested on: post-embryonic stages of insects; conditions: in vivo
[2] = tested on: eggs of many moths and beetles; conditions: exposures of up to three days

Structure (SMILES)	dosage level toxic to maize weevil eggs (maize weevil; eggs, over 6 hours) [mg/L]	toxicity to life stages of the maize weevil (maize weevil; relatively short exposure periods and low temperatures)	toxicity to post-embryonic stages of insects [1]	concentration for complete kill of the egg stage [2]
CI [Methyl iodide]	2.16	toxic to all life stages	–	–
O=S(=O)(F)F [Sulfuryl fluoride]	–	–	highly toxic	over 50 mg/L
